Assay results: US7348351B2, “Substituted 3-alkyl and 3-arylalkyl 1H-indol-1yl acetic acid derivatives as inhibitors of plasminogen activator inhibitor-1 (PAI-1)” (Wyeth, priority 2002, dated 2008)

Tests used:
[1] = molecular target: T1, recombinant human plasminogen activator inhibitor-1 (Homo sapiens, UniProt P05121); assay: Primary Screen for the PAI-1 Inhibition (residual tPA activity, chromogenic Spectrozyme-tPA); format: biochemical; conditions: 25 μM test compound; 140 nM PAI-1, 70 nM tPA, pH 6.6
T1 construct: purchased Molecular Innovations, Royal Oak, Mich
Protocol: Primary Screen for the PAI-1 Inhibition
Test compounds were dissolved in DMSO at a final concentration of 10 mM, then diluted 100× in physiologic buffer. The inhibitory assay was initiated by the addition of the test compound (1-100 μM final concentration, maximum DMSO concentration of 0.2%) in a pH 6.6 buffer containing 140 nM recombinant human plasminogen activator inhibitor-1 (Molecular Innovations, Royal Oak, Mich.). Following a 1 hour incubation at room temperature, 70 nM of recombinant human tissue plasminogen activator (tPA) was added, and the combination of the test compound, PAI-1 and tPA was incubated for an additional 30 minutes. Following the second incubation, Spectrozyme-tPA (American Diagnostica, Greenwich, Conn.), a chromogenic substrate for tPA, was added and absorbance read at 405 nm at 0 and 60 minutes. Relative PAI-1 inhibition is equal to the residual tPA activity in the presence of test compound and PAI-1. Control treatments included the complete inhibition of tPA by PAI-1 at the molar ratio employed (2:1), and the absence of any effect of the test compound on tPA alone.

human PAI-1 = human PAI-1 (Homo sapiens, UniProt P05121); assay: Assay for Determining IC50 of Inhibition of PAI-1 (antibody detection of active PAI-1 bound to tPA-coated plate); format: biochemical; conditions: human PAI-1 50 ng/ml, pH 7.5, 33B8 monoclonal antibody detection
Protocol: Assay for Determining IC50 of Inhibition of PAI-1
This assay was based upon the non-SDS dissociable interaction between tPA and active PAI-1. Assay plates were initially coated with human tPA (10 μg/ml). The test compounds were dissolved in DMSO at 10 mM, then diluted with physiologic buffer (pH 7.5) to a final concentration of 1-50 μM. The test compounds were incubated with human PAI-1 (50 ng/ml) for 15 minutes at room temperature. The tPA-coated plate was washed with a solution of 0.05% Tween 20 and 0.1% BSA, then the plate was blocked with a solution of 3% BSA. An aliquot of the test compound/PAI-1 solution was then added to the tPA-coated plate, incubated at room temperature for 1 hour, and washed. Active PAI-1 bound to the plate was assessed by adding an aliquot of a 1:1000 dilution of the 33B8 monoclonal antibody against human PAI-1, and incubating the plate at room temperature for 1 hour (Molecular Innovations, Royal Oak, Mich.). […] The plate was incubated 45 minutes at room temperature, and color development was determined at OD405 nm. The quantitation of active PAI-1 bound to tPA at varying concentrations of the test compound was used to determine the IC50. Results are analyzed using a logarithmic best-fit equation. The assay sensitivity was 5 ng/ml of human PAI-1 as determined from a standard curve ranging from 0-100 ng/ml.

T1 sequence (P05121 24-402): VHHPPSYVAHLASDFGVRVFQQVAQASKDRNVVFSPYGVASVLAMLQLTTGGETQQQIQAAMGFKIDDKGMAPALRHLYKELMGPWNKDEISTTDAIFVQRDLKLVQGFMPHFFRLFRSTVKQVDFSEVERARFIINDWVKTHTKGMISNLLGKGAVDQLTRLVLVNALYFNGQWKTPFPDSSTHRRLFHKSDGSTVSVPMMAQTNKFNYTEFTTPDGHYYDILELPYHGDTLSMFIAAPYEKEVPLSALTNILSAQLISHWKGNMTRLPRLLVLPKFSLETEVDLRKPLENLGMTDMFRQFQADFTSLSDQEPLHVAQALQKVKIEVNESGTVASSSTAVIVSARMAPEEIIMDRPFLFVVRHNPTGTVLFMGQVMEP
human PAI-1, sequence (P05121 24-402): as above

Row | SMILES | melting point | inhibition at 25 µM [1] | IC50 (human PAI-1) | % Inhibition @ 25 μM [1]
1 | O=C(O)Cn1cc(Cc2cc(C(F)(F)F)cc(C(F)(F)F)c2)c2cc(-c3cccc(C(F)(F)F)c3)ccc21 [Example 4, {3-[3,5-bis(triflu romethyl)benzyl]-5-[3-(trifluoromethyl)phenyl]-1H-indol-1-yl}acetic acid] | 175 to 176 °C | 35% | – | –
2 | CC(C)c1ccc(Cc2cn(CC(=O)O)c3ccc(-c4cccc(C(F)(F)F)c4)cc23)cc1 [Example 9, [3-(4-Isopropyl-benzyl)-5-(3-trifluoromethyl-phenyl)-indol-1-yl]acetic acid] | – | 26% | – | –
3 | O=C(O)Cn1cc(Cc2cc(C(F)(F)F)cc(C(F)(F)F)c2)c2cc(-c3ccc(OC(F)(F)F)cc3)ccc21 [Example 2] | 188 to 190 °C | 31% | 15.1 µM | –
4 | CC(c1cn(CC(=O)O)c2ccc(-c3cccc(C(F)(F)F)c3)cc12)C1CCCCC1 (centres unmarked) [Example 8, [3-(1-Cyclohexyl-ethyl)-5-(3-trifluoromethyl-phenyl)-indol-1-yl]acetic acid] | – | 64% | – | –

Further lines, results first:

Row | melting point | inhibition at 25 µM [1] | IC50 (human PAI-1) | % Inhibition @ 25 μM [1] | SMILES
5 | 150 to 155 °C | 100% | – | – | O=C(O)Cn1cc(Cc2cc(C(F)(F)F)cc(C(F)(F)F)c2)c2cc(-c3ccc(Cl)cc3Cl)ccc21 [Example 3, [3-[3,5-bis(trifluoromethyl)benzyl]-5-(2,4-dichlorophenyl)-1H-indol-1-yl]acetic acid]
6 | – | 48% | – | – | CC(C)CC(C)c1cn(CC(=O)O)c2ccc(-c3ccc(Cl)cc3Cl)cc12 (centres unmarked) [Example 10, [5-(2,4-Dichloro-phenyl)-3-(1,3-dimethyl-butyl)-indol-1-yl]-acetic acid]
7 | – | – | – | 48% | CC(c1cn(CC(=O)O)c2ccc(-c3ccc(Cl)cc3Cl)cc12)C1CCCCC1 (centres unmarked) [Example 12, [3-(1-Cyclohelxy-ethyl)-5-(2,4-dichloro-phenyl)-indol-1-yl]-acetic acid]
8 | – | 49% | – | – | CC(c1ccccc1)c1cn(CC(=O)O)c2ccc(-c3cccc(C(F)(F)F)c3)cc12 (centres unmarked) [Example 6, [3-(1-Phenyl-ethyl)-5-(3-trifluoromethyl-phenyl)-indol-1-yl]acetic acid]
9 | – | 26% | – | – | CC(c1ccccc1)c1cn(CC(=O)O)c2ccc(-c3ccc(Cl)cc3Cl)cc12 (centres unmarked) [Example 11, [5-(2,4-Dichloro-phenyl)-3-(1-phenyl-ethyl)-indol-1-yl]-acetic acid]
10 | – | 47% | – | – | CC(c1cccs1)c1cn(CC(=O)O)c2ccc(-c3cccc(C(F)(F)F)c3)cc12 (centres unmarked) [Example 7, [3-(1-Thiophen-2-yl-ethyl)-5-(3-trifluoromethyl-phenyl)-indol-1-yl]acetic acid]
